In ChEMBL document CHEMBL1129285, “Conformationally constrained analogues of diacylglycerol. 10. Ultrapotent protein kinase C ligands based on a racemic 5-disubstituted tetrahydro-2-furanone template” (J Med Chem, 1996):

Molecular target: Protein kinase C alpha type (Homo sapiens, UniProt P17252)
Experiment: Displacement of [H-20]phorbol12,13-dibutyrate (PDBU) from Protein kinase C alpha

Ki	Compound
78 nM	CCCCCCCCCCCCC/C=C1\CC(CO)(COC(C)=O)OC1=O (configuration not stated)
34 nM	CCCCCCCCCCCCC/C=C1/CC(CO)(COC(C)=O)OC1=O (configuration not stated)
